Data reported in PubChem BioAssay (NCI).
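Compound exposure: 48 hours, 5 concentrations, 96-well plates. TGI: total growth inhibition.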

How the values were obtained:
Assay in all cases: NCI tumour cell line growth inhibition, 48 h
A549 NSCLC = test system: A549 NSCLC
HT29 colon = test system: HT29 colon
SK-MEL-5 melanoma = test system: SK-MEL-5 melanoma
SF-268 CNS = test system: SF-268 CNS
HCC-2998 colon = test system: HCC-2998 colon
UACC-62 melanoma = test system: UACC-62 melanoma
SN12C renal = test system: SN12C renal
OVCAR-4 ovarian = test system: OVCAR-4 ovarian
NCI-H226 lung = test system: NCI-H226 lung
CCRF-CEM leukemia = test system: CCRF-CEM leukemia
DU-145 prostate = test system: DU-145 prostate
IGROV1 ovarian = test system: IGROV1 ovarian
MALME-3M melanoma = test system: MALME-3M melanoma
HCT-116 colon = test system: HCT-116 colon
HS 578T breast = test system: HS 578T breast
RPMI-8226 leukemia = test system: RPMI-8226 leukemia
HCT-15 colon = test system: HCT-15 colon
786-0 renal = test system: 786-0 renal
SNB-75 CNS = test system: SNB-75 CNS
SK-MEL-28 melanoma = test system: SK-MEL-28 melanoma
SNB-19 CNS = test system: SNB-19 CNS
T-47D breast = test system: T-47D breast
SF-295 CNS = test system: SF-295 CNS
HL-60(TB) leukemia = test system: HL-60(TB) leukemia
MCF7 breast = test system: MCF7 breast
A498 renal = test system: A498 renal
ACHN renal = test system: ACHN renal
PC-3 prostate = test system: PC-3 prostate
MDA-N = test system: MDA-N
UO-31 renal = test system: UO-31 renal
OVCAR-8 ovarian = test system: OVCAR-8 ovarian
TK-10 renal = test system: TK-10 renal
SK-MEL-2 melanoma = test system: SK-MEL-2 melanoma
UACC-257 melanoma = test system: UACC-257 melanoma
NCI-H460 lung = test system: NCI-H460 lung
RXF 393 renal = test system: RXF 393 renal
CAKI-1 renal = test system: CAKI-1 renal
COLO 205 colon = test system: COLO 205 colon
NCI/ADR-RES ovarian = test system: NCI/ADR-RES ovarian
MDA-MB-435 = test system: MDA-MB-435
U251 CNS = test system: U251 CNS
EKVX NSCLC = test system: EKVX NSCLC
OVCAR-5 ovarian = test system: OVCAR-5 ovarian
HOP-92 NSCLC = test system: HOP-92 NSCLC
NCI-H522 lung = test system: NCI-H522 lung
NCI-H23 lung = test system: NCI-H23 lung
OVCAR-3 ovarian = test system: OVCAR-3 ovarian
BT-549 breast = test system: BT-549 breast
KM12 colon = test system: KM12 colon
SW-620 colon = test system: SW-620 colon
K-562 leukemia = test system: K-562 leukemia
HOP-62 NSCLC = test system: HOP-62 NSCLC
MDA-MB-231 breast = test system: MDA-MB-231 breast
M14 melanoma = test system: M14 melanoma
SK-OV-3 ovarian = test system: SK-OV-3 ovarian
MOLT-4 leukemia = test system: MOLT-4 leukemia
SF-539 CNS = test system: SF-539 CNS
LOX IMVI melanoma = test system: LOX IMVI melanoma

Cc1ccc2c3c4c(ccc13)C(C)(C)OC4=C(C(C)C)C2=O
TGI (A549 NSCLC): > 100 µM
TGI (HT29 colon): 39.2 µM
TGI (SK-MEL-5 melanoma): > 100 µM
TGI (SF-268 CNS): > 100 µM
TGI (HCC-2998 colon): > 100 µM
TGI (UACC-62 melanoma): > 100 µM
TGI (SN12C renal): > 100 µM
TGI (OVCAR-4 ovarian): > 100 µM
TGI (NCI-H226 lung): 27.9 µM
TGI (CCRF-CEM leukemia): > 100 µM
TGI (DU-145 prostate): > 100 µM
TGI (IGROV1 ovarian): > 100 µM
TGI (MALME-3M melanoma): > 100 µM
TGI (HCT-116 colon): > 100 µM
TGI (HS 578T breast): 55.2 µM
TGI (RPMI-8226 leukemia): > 100 µM
TGI (HCT-15 colon): > 100 µM
TGI (786-0 renal): > 100 µM
TGI (SNB-75 CNS): > 100 µM
TGI (SK-MEL-28 melanoma): > 100 µM
TGI (SNB-19 CNS): > 100 µM
TGI (T-47D breast): > 100 µM
TGI (SF-295 CNS): > 100 µM
TGI (HL-60(TB) leukemia): > 100 µM
TGI (MCF7 breast): > 100 µM
TGI (A498 renal): > 100 µM
TGI (ACHN renal): > 100 µM
TGI (PC-3 prostate): 27.6 µM
TGI (MDA-N): > 100 µM
TGI (UO-31 renal): > 100 µM
TGI (OVCAR-8 ovarian): > 100 µM
TGI (TK-10 renal): > 100 µM
TGI (SK-MEL-2 melanoma): 30.7 µM
TGI (UACC-257 melanoma): > 100 µM
TGI (NCI-H460 lung): > 100 µM
TGI (RXF 393 renal): > 100 µM
TGI (CAKI-1 renal): > 100 µM
TGI (COLO 205 colon): > 100 µM
TGI (NCI/ADR-RES ovarian): > 100 µM
TGI (MDA-MB-435): > 100 µM
TGI (U251 CNS): > 100 µM
TGI (EKVX NSCLC): > 100 µM
TGI (OVCAR-5 ovarian): > 100 µM
TGI (HOP-92 NSCLC): > 100 µM
TGI (NCI-H522 lung): > 100 µM
TGI (NCI-H23 lung): > 100 µM
TGI (OVCAR-3 ovarian): 26.8 µM
TGI (BT-549 breast): > 100 µM
TGI (KM12 colon): > 100 µM
TGI (SW-620 colon): > 100 µM
TGI (K-562 leukemia): > 100 µM
TGI (HOP-62 NSCLC): 29 µM
TGI (MDA-MB-231 breast): > 100 µM
TGI (M14 melanoma): > 100 µM
TGI (SK-OV-3 ovarian): > 100 µM
TGI (MOLT-4 leukemia): > 100 µM
TGI (SF-539 CNS): > 100 µM

CCOC(=O)C(C)(C)Oc1ccc(Cl)cc1
TGI (A549 NSCLC): > 1000 µM
TGI (HT29 colon): 325 µM
TGI (SK-MEL-5 melanoma): 294 µM
TGI (SF-268 CNS): > 1000 µM
TGI (HCC-2998 colon): > 1000 µM
TGI (UACC-62 melanoma): > 1000 µM
TGI (SN12C renal): > 1000 µM
TGI (OVCAR-4 ovarian): > 1000 µM
TGI (NCI-H226 lung): 429 µM
TGI (CCRF-CEM leukemia): > 1000 µM
TGI (DU-145 prostate): > 1000 µM
TGI (IGROV1 ovarian): > 1000 µM
TGI (MALME-3M melanoma): > 1000 µM
TGI (HCT-116 colon): > 1000 µM
TGI (LOX IMVI melanoma): 329 µM
TGI (HS 578T breast): > 1000 µM
TGI (HCT-15 colon): > 1000 µM
TGI (786-0 renal): > 1000 µM
TGI (SNB-75 CNS): > 1000 µM
TGI (SK-MEL-28 melanoma): > 1000 µM
TGI (SNB-19 CNS): > 1000 µM
TGI (T-47D breast): 682 µM
TGI (SF-295 CNS): > 1000 µM
TGI (HL-60(TB) leukemia): > 1000 µM
TGI (MCF7 breast): > 1000 µM
TGI (A498 renal): > 1000 µM
TGI (ACHN renal): > 1000 µM
TGI (PC-3 prostate): > 1000 µM
TGI (MDA-N): > 1000 µM
TGI (UO-31 renal): > 1000 µM
TGI (OVCAR-8 ovarian): > 1000 µM
TGI (TK-10 renal): > 1000 µM
TGI (SK-MEL-2 melanoma): 392 µM
TGI (UACC-257 melanoma): 496 µM
TGI (NCI-H460 lung): > 1000 µM
TGI (RXF 393 renal): 433 µM
TGI (CAKI-1 renal): > 1000 µM
TGI (COLO 205 colon): 459 µM
TGI (NCI/ADR-RES ovarian): > 1000 µM
TGI (MDA-MB-435): > 1000 µM
TGI (U251 CNS): > 1000 µM
TGI (EKVX NSCLC): > 1000 µM
TGI (OVCAR-5 ovarian): > 1000 µM
TGI (HOP-92 NSCLC): 650 µM
TGI (NCI-H522 lung): > 1000 µM
TGI (NCI-H23 lung): > 1000 µM
TGI (BT-549 breast): > 1000 µM
TGI (KM12 colon): > 1000 µM
TGI (SW-620 colon): > 1000 µM
TGI (K-562 leukemia): > 1000 µM
TGI (HOP-62 NSCLC): > 1000 µM
TGI (MDA-MB-231 breast): > 1000 µM
TGI (M14 melanoma): > 1000 µM
TGI (SK-OV-3 ovarian): > 1000 µM
TGI (MOLT-4 leukemia): 591 µM
TGI (SF-539 CNS): > 1000 µM
